Measurements from ChEMBL document CHEMBL4619708, “Synthesis and biological evaluation of isoliquiritigenin derivatives as a neuroprotective agent against glutamate mediated neurotoxicity in HT22 cells” (2020).
Calls of active or inactive are those of the source. The calls are words filed in the database; no cut-off is given here.

How the values were obtained:
HT-22 [1] = test: Neuroprotection against glutamate-induced oxidative stress in mouse HT22 cells assessed as increase in cell viability pretreated with glutamate for 24 hrs followed by compound addition by calcein AM and PI staining based assay; format: functional
HT-22 [2] = test: Neuroprotection against glutamate-induced oxidative stress in mouse HT22 cells assessed as increase in cell viability at 50 to 100 uM pretreated with glutamate for 24 hrs followed by compound addition by calcein AM and PI staining based assay; format: functional
HT-22 [3] = test: Neuroprotection against glutamate-induced oxidative stress in mouse HT22 cells assessed as increase in cell viability at 3 to 6 uM pretreated with glutamate for 24 hrs followed by compound addition by calcein AM and PI staining based assay; format: functional
HT-22 [4] = test: Neuroprotection against glutamate-induced oxidative stress in mouse HT22 cells assessed as reduction in bax protein level at 100 uM by Western blot analysis; format: functional, cell-based
HT-22 [5] = test: Neuroprotection against glutamate-induced oxidative stress in mouse HT22 cells assessed as reduction in phosphorylated ERK protein level at 100 uM by Western blot analysis; format: functional, cell-based
HT-22 [6] = test: Neuroprotection against glutamate-induced oxidative stress in mouse HT22 cells assessed as increase in bcl2 protein level at 100 uM by Western blot analysis; format: functional, cell-based
HT-22 [7] = test: Neuroprotection against glutamate-induced oxidative stress in mouse HT22 cells assessed as reduction in phosphorylated p38 protein level at 100 uM by Western blot analysis; format: functional, cell-based
HT-22 [8] = test: Neuroprotective activity in mouse HT22 cells assessed as apoptotic or dead cells by annexin V and PI staining based assay (reference value: 2.58%); format: functional
HT-22 [9] = test: Neuroprotection against glutamate-induced oxidative stress in mouse HT22 cells assessed as reduction in Ca2+ influx pretreated with glutamate for 8 hrs followed by compound addition by Fluo3-AM staining based fluorescent microscopic method relative to control; format: functional; design: scale not given: the % may be the effect or the level left
HT-22 [10] = test: Neuroprotection against glutamate-induced oxidative stress in mouse HT22 cells assessed as reduction in cellular ROS level by DCFDA staining based FACS analysis; format: functional, cell-based
HT-22 [11] = test: Neuroprotection against glutamate-induced oxidative stress in mouse HT22 cells assessed as apoptotic or dead cells pretreated with glutamate for 8 hrs followed by compound addition by annexin V and PI staining based assay (reference value: 2.58%); format: functional
HT-22 [12] = test: Neuroprotection against glutamate-induced oxidative stress in mouse HT22 cells assessed as increase in cell viability at 100 uM pretreated with glutamate for 24 hrs followed by compound addition by calcein AM and PI staining based assay; format: functional
HT-22 [13] = test: Neuroprotection against glutamate-induced oxidative stress in mouse HT22 cells assessed as increase in cell viability by MTT assay; format: functional, cell-based
HT-22 [14] = test: Neuroprotection against glutamate-induced oxidative stress in mouse HT22 cells assessed as decrease in translocation of AIF to nucleus at 100 uM by Western blot analysis; format: functional, cell-based
HT-22 [15] = test: Neuroprotection against glutamate-induced oxidative stress in mouse HT22 cells assessed as reduction in Ca2+ influx pretreated with glutamate for 8 hrs followed by compound addition by Fluo3-AM staining based fluorescent microscopic method; format: functional, cell-based
HT-22 [16] = test: Neuroprotection against glutamate-induced oxidative stress in mouse HT22 cells assessed as reduction in phosphorylated JNK protein level at 100 uM by Western blot analysis; format: functional, cell-based

Row | Compound | Activity (HT-22 [1]) | further results
1 | COc1ccc(/C=C/C(=O)c2ccc(O)cc2O)cc1 | inactive | –
2 | O=C(/C=C/c1ccc(O)cc1)c1ccc(O)cc1O | inactive | Activity (HT-22 [2]): inactive
3 | O=C(/C=C/c1cccc(O)c1)c1ccc(O)cc1O | inactive | –
4 | O=C(/C=C/c1ccc2[nH]ccc2c1)c1ccc(O)cc1O | Active | –
5 | O=C(/C=C/c1ccccc1)c1ccc(O)cc1O | inactive | –
6 | O=C(/C=C/c1ccc(O)c(O)c1)c1ccc(O)cc1O | inactive | –
7 | COc1ccc(/C=C/C(=O)c2ccc(O)cc2O)cc1OC | inactive | –
8 | CCn1c2ccccc2c2cc(/C=C/C(=O)c3ccc(O)cc3O)ccc21 | inactive | –
9 | COc1cc(/C=C/C(=O)c2ccc(O)cc2O)cc(OC)c1OC | inactive | –
10 | O=C(/C=C/c1ccc2ccccc2c1)c1ccc(O)cc1O | inactive | –
11 | O=C(/C=C/c1ccc(C(F)(F)F)cc1)c1ccc(O)cc1O | inactive | –
12 | COc1cc(Br)c(/C=C/C(=O)c2ccc(O)cc2O)cc1OC | inactive | Activity (HT-22 [3]): Active
13 | CC(=O)N[C@@H](CS)C(=O)O | inactive | –
14 | CN(C)c1ccc(/C=C/C(=O)c2ccc(O)cc2O)cc1 | Active | Activity (HT-22 [4]): Active; Activity (HT-22 [5]): Active; Activity (HT-22 [6]): Active; Activity (HT-22 [7]): Active; Activity (HT-22 [8]): 6.01%; Activity (HT-22 [9]): 50%; Activity (HT-22 [10]): Active; Activity (HT-22 [11]): 6.4%; Activity (HT-22 [12]): Active; Activity (HT-22 [13]): Active; Activity (HT-22 [14]): Active; Activity (HT-22 [15]): Active; Activity (HT-22 [16]): Active
15 | COc1cc(/C=C/C(=O)c2ccc(O)cc2O)ccc1O | inactive | –
16 | O=C(/C=C/c1ccc(-c2ccccc2)cc1)c1ccc(O)cc1O | inactive | –
17 | COc1cc(/C=C/C(=O)c2ccc(O)cc2O)cc(OC)c1Br | inactive | –
18 | O=C(/C=C/c1ccc(Cl)cc1)c1ccc(O)cc1O | inactive | –
19 | COc1cccc(/C=C/C(=O)c2ccc(O)cc2O)c1 | inactive | –
